Results from US20230220021A1, “CYCLIC PEPTIDE INHIBITORS OF PSD-95 AND USES THEREOF” (University of Copenhagen, priority 2020, published 2023).
Where a SMILES comes first, the peptide text is derived from it. [ ]: non-standard residue; d: D form.

What was measured:
PSD-95-PDZ2 [1] = biological target: T1, PSD-95-PDZ2 (Homo sapiens, UniProt P78352); assay: Fluorescence polarization (FP) competition assay against cyclic nNOS TAMRA probe; format: binding; settings: for Relative Ki (Ki mut/Ki WT): FP inhibition constant normalized to WT value
T1 construct: 7xHis (N); made in house; host or cells: Escherichia coli B21 pLys (for the mutants, 'as previously described')

PSD-95-PDZ2 [2] = biological target: T2, PSD-95-PDZ2 (Homo sapiens, UniProt P78352, V178C); assay: SPOT peptide array screening with TAMRA labelled PSD-95-PDZ2; format: binding; settings: SPOT array, TAMRA labelled PSD-95-PDZ2-V178C, normalized to WT
T2 construct: screened with the TAMRA labelled PSD-95-PDZ2-V178C domain; 7xHis (N); made in house
Experimental: SPOT peptide array synthesis. To generate the cyclic nNOSβ-hairpin arrays, we used the Intavis MultiPep spotter (Intavis Bioanalytical instruments). The membranes employed in this assay were SynthoPlan APEG CE (standard amino-modified acid stable sellulose membrane with a PEG-spacer), 10×15 cm with a loading of 400 nmol cm^−2. Solutions of 0.3 M Fmoc-AA-OH and 0.3 M Oxyma Pure were prepared in N-methyl-2-pyrrolidone (NMP). The activator solution consisted of 0.3 M DIC and 0.3 M of 2,4,6-trimethylpyridine (Collidine) in NMP. The capping solution consisted of a solution of 1 M acetic anhydride and 0.05 M of 4-dimethylaminopyridine (DMAP) in NMP. The deprotection solution consisted of 20% piperidine in NMP. AA couplings were performed 1 h,4 times. Deprotection of the Fmoc groups was performed 15min,2 times. Membrane washing between couplings or deprotections was performed with NMP and ethanol. Elongation of peptides in cellulose membrane was started by coupling first the Fmoc-PEG(9)-OH (Iris Biotech) and the subsequent mixture of Fmoc-Gly-OH (25%) and Boc-Gly-OH (75%) to lower the total loading of the membrane. Afterwards, the resin was capped with the capping solution and extensively washed and soaked in bromophenol blue (BPB) as a quality control to reveal the SPOTS with a functional amino group. Then, we coupled the quasi-orthogonal group Fmoc-Glu-PP, and carried out the rest of the synthesis until peptide completion. The cellulose bound linear peptides were finally treated with a solution of 95% DCM, 3% TIPS and 2% TFA 3 times, 20 min. to remove the quasi-orthogonal group. Afterwards, the membrane was washed 5 times with DCM and neutralized with 5% DIPEA in DCM. The membrane was then washed 5 more times with DCM, 5 times with NMP and cyclized with 0.3M PyAOP and 0.3M of DIPEA in DMF for 3 h or overnight. Finally, the membrane was dried with DCM and the side-chain protecting groups were cleaved with the standard deprotection cocktail (95% TFA, 2.5% H2O and 2.5% TIPS) or with reagent K [TFA 82.5%, phenol 5%, H2O 5%, thioanisole 5% and 1,2-ethanedithiol (EDT) 2.5%] for 3 h.
SPOT membrane screening. Membranes were incubated with PBS pH 7.2+0.5% bovine serum albumin (BSA) for 1 h. After the incubation period, the membrane was dried and scanned with an Amershan Typhoon scanner, at 400V, Cy3 wavelength (532 nm). A TIF file of the screening and a file with the blank values were generated using the Image Quant software. Afterwards, a solution of 50 nM of TAMRA labelled PSD-95-PDZ2 domain was prepared in PBS pH 7.2+0.5% BSA and was added to the membrane. The membrane was left incubating in a Polymax 1040 rocking table for 1 h protected from the light. Passed the incubation time, the excess of labelled protein was removed by washing the membrane 3 times with PBS+0.5% BSA. Finally, the membrane fluorescence values were measured with the Amershan Typhoon scanner at 400V, Cy3 wavelength (532 nm). Using the Image Quant software, the TIF image of the screening and a file with the fluorescence values of the peptides with the TAMRA labelled PSD-95-PDZ2 were generated. The blank was then subtracted from the fluorescence values of the peptides screened against the TAMRA labelled PSD-95-PDZ2.
A deep mutational scan was performed on the WT scaffold, exchanging each AA to the remaining 19 L-AAs. Each array contained three copies of the individual peptides as technical replicates. Additionally, three controls were included in the design: the cyclic nNOS β-hairpin WT control (positive control), a linear nNOS peptide (cyclization control) and a cyclic nNOS β-hairpin with a F111V substitution (negative control previously tested in FP competition assays). For array screening, a mutation in PSD-95-PDZ2 residue V178 (PSD-95-PDZ2-V178C) was introduced, which was subsequently labelled with TAMRA maleimide. […]

Compound | Relative Ki (Ki mut/Ki WT) (PSD-95-PDZ2 [1]) | Normalized SPOT fluorescence (Mut/WT) (PSD-95-PDZ2 [2]) | Ki (PSD-95-PDZ2 [1]; FP competition, cyclic nNOS TAMRA probe, mean of triplicates, N.B. = not binding, read-out: Ki)
CC[C@H](C)[C@@H]1NC(=O)[C@H]([C@@H](C)O)NC(=O)[C@H](CCCCN)NC(=O)[C@@H]2CCCN2C(=O)[C@H]([C@@H](C)O)NC(=O)CNC(=O)[C@H](CC(=O)O)NC(=O)CNC(=O)[C@H]([C@@H](C)O)NC(=O)[C@H](Cc2ccccc2)NC(=O)[C@H]([C@@H](C)O)NC(=O)[C@H]([C@@H](C)O)NC(=O)[C@H](CCC(=O)O)NC(=O)[C@H](CC(C)C)NC(=O)[C@H](Cc2c[nH]cn2)NC(=O)[C@H]([C@@H](C)O)NC(=O)[C@H](CCC(N)=O)NC(=O)CNC(=O)[C@H]2CCCN2C(=O)[C@H](C)NC(=O)[C@H]([C@@H](C)O)NC(=O)[C@H](C(C)C)NC(=O)[C@H](CCCNC(=N)N)NC1=O [compound 74] (cyclo(THLETTFTGDGTPKTIRVTA[dP]GQ)) | 1.01 | 0.42 | 
CC[C@H](C)[C@@H]1NC(=O)[C@H]([C@@H](C)O)NC(=O)[C@H](CCCCN)NC(=O)[C@@H]2CCCN2C(=O)[C@H]([C@@H](C)O)NC(=O)CNC(=O)[C@H](CC(=O)O)NC(=O)CNC(=O)[C@H](C)NC(=O)[C@H](Cc2ccccc2)NC(=O)[C@H]([C@@H](C)O)NC(=O)[C@H]([C@@H](C)O)NC(=O)[C@H](CCC(=O)O)NC(=O)[C@H](CC(C)C)NC(=O)[C@H](Cc2c[nH]cn2)NC(=O)[C@H]([C@@H](C)O)NC(=O)[C@H](CCC(N)=O)NC(=O)CNC(=O)[C@H]2CCCN2C(=O)[C@H](CCC(N)=O)NC(=O)[C@H]([C@@H](C)O)NC(=O)[C@H](C(C)C)NC(=O)[C@H](CCCNC(=N)N)NC1=O [compound 62] (cyclo(THLETTFAGDGTPKTIRVTQ[dP]GQ)) | 1.18 | 0.97 | 
CC[C@H](C)[C@@H]1NC(=O)[C@H]([C@@H](C)O)NC(=O)[C@H](CCCCN)NC(=O)[C@@H]2CCCN2C(=O)[C@H]([C@@H](C)O)NC(=O)CNC(=O)[C@H](CC(=O)O)NC(=O)CNC(=O)[C@H]([C@@H](C)O)NC(=O)[C@H](Cc2ccccc2)NC(=O)[C@H]([C@@H](C)O)NC(=O)[C@H]([C@@H](C)O)NC(=O)[C@H](CCC(=O)O)NC(=O)[C@H](CC(C)C)NC(=O)[C@H](Cc2c[nH]cn2)NC(=O)[C@H]([C@@H](C)O)NC(=O)[C@H](CCC(N)=O)NC(=O)CNC(=O)[C@H]2CCCN2C(=O)[C@H](CCC(N)=O)NC(=O)[C@H](C)NC(=O)[C@H](C(C)C)NC(=O)[C@H](CCCNC(=N)N)NC1=O [compound 73] (cyclo(THLETTFTGDGTPKTIRVAQ[dP]GQ)) | 1.03 | 0.61 | 
CC[C@H](C)[C@@H]1NC(=O)[C@H]([C@@H](C)O)NC(=O)[C@H](CCCCN)NC(=O)[C@@H]2CCCN2C(=O)[C@H]([C@@H](C)O)NC(=O)CNC(=O)[C@H](CC(=O)O)NC(=O)CNC(=O)[C@H]([C@@H](C)O)NC(=O)[C@H](C(C)C)NC(=O)[C@H]([C@@H](C)O)NC(=O)[C@H]([C@@H](C)O)NC(=O)[C@H](CCC(=O)O)NC(=O)[C@H](CC(C)C)NC(=O)[C@H](Cc2c[nH]cn2)NC(=O)[C@H]([C@@H](C)O)NC(=O)[C@H](CCC(N)=O)NC(=O)CNC(=O)[C@H]2CCCN2C(=O)[C@H](CCC(N)=O)NC(=O)[C@H]([C@@H](C)O)NC(=O)[C@H](C(C)C)NC(=O)[C@H](CCCNC(=N)N)NC1=O [compound 21] (cyclo(THLETTVTGDGTPKTIRVTQ[dP]GQ)) | 51.60 | 0.05 | 
CC[C@H](C)[C@@H]1NC(=O)[C@H]([C@@H](C)O)NC(=O)[C@H](CCCCN)NC(=O)[C@@H]2CCCN2C(=O)[C@H]([C@@H](C)O)NC(=O)CNC(=O)[C@H](C)NC(=O)CNC(=O)[C@H]([C@@H](C)O)NC(=O)[C@H](Cc2ccccc2)NC(=O)[C@H]([C@@H](C)O)NC(=O)[C@H]([C@@H](C)O)NC(=O)[C@H](CCC(=O)O)NC(=O)[C@H](CC(C)C)NC(=O)[C@H](Cc2c[nH]cn2)NC(=O)[C@H]([C@@H](C)O)NC(=O)[C@H](CCC(N)=O)NC(=O)CNC(=O)[C@H]2CCCN2C(=O)[C@H](CCC(N)=O)NC(=O)[C@H]([C@@H](C)O)NC(=O)[C@H](C(C)C)NC(=O)[C@H](CCCNC(=N)N)NC1=O [compound 64] (cyclo(THLETTFTGAGTPKTIRVTQ[dP]GQ)) | 2.15 | 1.80 | 
CC[C@H](C)[C@@H]1NC(=O)[C@H]([C@@H](C)O)NC(=O)[C@H](CCCCN)NC(=O)[C@@H]2CCCN2C(=O)[C@H](C)NC(=O)CNC(=O)[C@H](CC(=O)O)NC(=O)CNC(=O)[C@H]([C@@H](C)O)NC(=O)[C@H](Cc2ccccc2)NC(=O)[C@H]([C@@H](C)O)NC(=O)[C@H]([C@@H](C)O)NC(=O)[C@H](CCC(=O)O)NC(=O)[C@H](CC(C)C)NC(=O)[C@H](Cc2c[nH]cn2)NC(=O)[C@H]([C@@H](C)O)NC(=O)[C@H](CCC(N)=O)NC(=O)CNC(=O)[C@H]2CCCN2C(=O)[C@H](CCC(N)=O)NC(=O)[C@H]([C@@H](C)O)NC(=O)[C@H](C(C)C)NC(=O)[C@H](CCCNC(=N)N)NC1=O [compound 66] (cyclo(THLETTFTGDGAPKTIRVTQ[dP]GQ)) | 0.83 | 1.30 | 
CC[C@H](C)[C@@H]1NC(=O)[C@H]([C@@H](C)O)NC(=O)[C@H](CCCCN)NC(=O)[C@@H]2CCCN2C(=O)[C@H]([C@@H](C)O)NC(=O)CNC(=O)[C@H](CC(=O)O)NC(=O)CNC(=O)[C@H](CCSC)NC(=O)[C@H](Cc2ccccc2)NC(=O)[C@H]([C@@H](C)O)NC(=O)[C@H]([C@@H](C)O)NC(=O)[C@H](CCC(=O)O)NC(=O)[C@H](CC(C)C)NC(=O)[C@H](Cc2c[nH]cn2)NC(=O)[C@H]([C@@H](C)O)NC(=O)[C@H](CCC(N)=O)NC(=O)CNC(=O)[C@H]2CCCN2C(=O)[C@H](CCC(N)=O)NC(=O)[C@H]([C@@H](C)O)NC(=O)[C@H](C(C)C)NC(=O)[C@H](CCCNC(=N)N)NC1=O [compound 37] | 2.51 | 2.00 | 
CC[C@H](C)[C@@H]1NC(=O)[C@H](C)NC(=O)[C@H](CCCCN)NC(=O)[C@@H]2CCCN2C(=O)[C@H]([C@@H](C)O)NC(=O)CNC(=O)[C@H](CC(=O)O)NC(=O)CNC(=O)[C@H]([C@@H](C)O)NC(=O)[C@H](Cc2ccccc2)NC(=O)[C@H]([C@@H](C)O)NC(=O)[C@H]([C@@H](C)O)NC(=O)[C@H](CCC(=O)O)NC(=O)[C@H](CC(C)C)NC(=O)[C@H](Cc2c[nH]cn2)NC(=O)[C@H]([C@@H](C)O)NC(=O)[C@H](CCC(N)=O)NC(=O)CNC(=O)[C@H]2CCCN2C(=O)[C@H](CCC(N)=O)NC(=O)[C@H]([C@@H](C)O)NC(=O)[C@H](C(C)C)NC(=O)[C@H](CCCNC(=N)N)NC1=O [compound 69] (cyclo(THLETTFTGDGTPKAIRVTQ[dP]GQ)) | 11.33 | 0.09 | 17 µM
CC[C@H](C)[C@@H]1NC(=O)[C@H]([C@@H](C)O)NC(=O)[C@H](CCCCN)NC(=O)[C@@H]2CCCN2C(=O)[C@H]([C@@H](C)O)NC(=O)CNC(=O)[C@H](CC(=O)O)NC(=O)CNC(=O)[C@H]([C@@H](C)O)NC(=O)[C@H](Cc2ccccc2)NC(=O)[C@H]([C@@H](C)O)NC(=O)[C@H]([C@@H](C)O)NC(=O)[C@H](CCC(=O)O)NC(=O)[C@H](CC(C)C)NC(=O)[C@H](Cc2c[nH]cn2)NC(=O)[C@H]([C@@H](C)O)NC(=O)[C@H](CCC(N)=O)NC(=O)CNC(=O)[C@H]2CCCN2C(=O)[C@H](CCC(N)=O)NC(=O)[C@H]([C@@H](C)O)NC(=O)[C@H](C(C)C)NC(=O)[C@H](C)NC1=O [compound 71] (cyclo(THLETTFTGDGTPKTIAVTQ[dP]GQ)) | 1.65 | 0.15 | 
